ChEMBL document CHEMBL6182910, “Design, Synthesis, and Biological Evaluation of 4-(Difluoromethyl)-1H-imidazole-5-carboxylic Acids/4-(3-Cyanophenoxy)pyrimidine-5-carboxylic Acids as P2Y1 Receptor Antagonists for Ischemic Stroke Treatment” (J Med Chem, 2025)

Tests used:
Plasma [1] = test: Anti-platelet aggregation in platelet-rich plasma of male male Sprague-Dawley rat assessed as inhibition of ADP-induced platelet aggregation preincubated for 15 mins followed by ADP addition measured up to 10 mins by Born's turbidometric method; type: functional, cell-free
Rattus norvegicus [2] = test: Neuroprotective activity in MCAO-induced brain damage Sprague-Dawley rat model assessed as reduction in brain water content at 2.5 to 10 mg/kg, iv administered immediately after arterial occlusion measured after 24 hrs; type: functional, organism-based; conditions: dose 2.5-10 mg/kg
[3] = Oral bioavailability male Sprague-Dawley rat at 10 mg/kg measured up to 24 hrs by LC-MS/MS analysis; type: ADME, organism-based; conditions: in vivo
[4] = AUC in brain of male Kunming mouse at 10 mg/kg, iv measured for 0.083 to 24 hrs by LC-MS/MS analysis; type: ADME, organism-based; conditions: in vivo, time 0.083-24 hrs
[5] = Protein binding in rat brain homogenate at 10 uM incubated for 12 hrs by equilibrium dialysis method; type: ADME, tissue-based; conditions: read-out: PB (converted)
CYP3A4 = CYP3A4 (Homo sapiens, UniProt P08684); test: Inhibition of CYP3A4 in human liver microsomes using nifedipine as substrate at 10 uM preincubated for 5 min followed by NADPH addition measured after 120 mins by LC-MS/MS analysis relative to control; type: ADME, Microsome; conditions: probe nifedipine, time 125 min
[6] = AUC in brain of male Sprague-Dawley rat at 10 mg/kg, iv measured for 0.083 to 24 hrs by LC-MS/MS analysis; type: ADME, organism-based; conditions: in vivo, time 0.083-24 hrs
Rattus norvegicus [7] = test: Neuroprotective activity in MCAO-induced brain damage Sprague-Dawley rat model assessed as reduction in neurological damage administered intravenously immediately after arterial occlusion measured after 24 hrs by Longa's method; type: functional, organism-based; conditions: dose 2.5-10 mg/kg, route iv
Rattus norvegicus [8] = test: Neuroprotective activity in MCAO-induced brain damage Sprague-Dawley rat model assessed as plasma MDA level at 2.5 to 10 mg/kg, iv administered immediately after arterial occlusion measured after 24 hrs (reference value: 51.7 %); type: functional; conditions: dose 2.5-10 mg/kg
Rattus norvegicus [9] = test: Neuroprotective activity in MCAO-induced brain damage Sprague-Dawley rat model assessed as reduction in brain infarction size at 2.5 mg/kg, iv administered immediately after arterial occlusion measured after 24 hrs by TTC staining based analysis relative to control; type: functional; set-up: scale not given: the % may be the effect or the level left
[10] = Tmax male Sprague-Dawley rat at 10 mg/kg, po measured up to 24 hrs by LC-MS/MS analysis; type: ADME, organism-based; conditions: in vivo
Rattus norvegicus [11] = test: Neuroprotective activity in MCAO-induced brain damage Sprague-Dawley rat model assessed as reduction in brain infarction size administered intravenously immediately after arterial occlusion measured after 24 hrs by TTC staining based analysis; type: functional; conditions: route iv
[12] = Half life male Sprague-Dawley rat at 10 mg/kg, iv measured up to 24 hrs by LC-MS/MS analysis; type: ADME, organism-based; conditions: in vivo
[13] = Tmax male Sprague-Dawley rat at 10 mg/kg, iv measured up to 24 hrs by LC-MS/MS analysis; type: ADME, organism-based; conditions: in vivo
[14] = Ratio of AUC in brain to plasma of male Kunming mouse at 10 mg/kg, iv measured for 0.083 to 24 hrs by LC-MS/MS analysis; type: ADME, organism-based; conditions: brain and plasma, time 0.083-24 hrs, read-out: Ratio AUC
Rattus norvegicus [15] = test: Anti-platelet aggregation in Sprague-Dawley rat assessed as reduction in ADP-induced bleeding loss at 10 mg/kg, po measured for 15 mins in presence of 10 uM ADP; type: functional, organism-based
[16] = Cmax male Sprague-Dawley rat at 10 mg/kg, po measured up to 24 hrs by LC-MS/MS analysis; type: ADME, organism-based; conditions: in vivo
Plasma [17] = test: Anti-platelet aggregation in platelet-rich plasma of male Japanese white rabbit assessed as inhibition of ADP-induced platelet aggregation preincubated for 15 mins followed by ADP addition measured up to 10 mins by Born's turbidometric method; type: functional, cell-free; conditions: Oryctolagus cuniculus
[18] = Antioxidant activity assessed as DPPH radical scavenging activity at 60 uM incubated for 30 mins under dark condition by absorbance based method; type: functional
Rattus norvegicus [19] = test: Anti-platelet aggregation in Sprague-Dawley rat assessed as inhibition of ADP-induced platelet aggregation at 10 mg/kg, po measured for 15 mins in presence of 5 uM ADP by cell counter analysis relative to control; type: functional; conditions: 0.25 h
[20] = AUC in plasma of male Kunming mouse at 10 mg/kg, iv measured for 0.083 to 24 hrs by LC-MS/MS analysis; type: ADME, organism-based; conditions: time 0.083-24 hrs
Rattus norvegicus [21] = test: Neuroprotective activity in MCAO-induced brain damage Sprague-Dawley rat model assessed as reduction in brain infarction size at 5 mg/kg, iv administered immediately after arterial occlusion measured after 24 hrs by TTC staining based analysis relative to control; type: functional; set-up: scale not given: the % may be the effect or the level left
Oryctolagus cuniculus = species: Oryctolagus cuniculus; test: Antagonist activity at P2Y12 receptor in platelet-rich plasma of male Japanese white rabbit assessed as inhibition of VASP phosphorylation at Ser239 at 30 uM pretreated for 10 mins followed by PGE1/ADP addition measured after 10 mins by ELISA relative to control; type: cell-free; conditions: time 20.0 min
[22] = Clearance male Sprague-Dawley rat at 10 mg/kg, iv measured up to 24 hrs by LC-MS/MS analysis; type: ADME, organism-based; conditions: in vivo
Rattus norvegicus [23] = test: Neuroprotective activity in MCAO-induced brain damage Sprague-Dawley rat model assessed as improvement in motor co-ordination administered intravenously immediately after arterial occlusion measured after 24 hrs by Longa's method; type: functional, organism-based; conditions: dose 2.5-10 mg/kg, route iv
[24] = Protein binding in rat plasma at 10 uM incubated for 12 hrs by equilibrium dialysis method; type: ADME, cell-free; conditions: read-out: PPB (converted)
CYP2A6 = biological target: T1, CYP2A6 (Homo sapiens, UniProt P11509); test: Inhibition of CYP2A6 in human liver microsomes using coumarin as substrate at 10 uM preincubated for 5 min followed by NADPH addition measured after 120 mins by LC-MS/MS analysis relative to control; type: ADME, Microsome; conditions: probe coumarin, time 125 min
T1 sequence (P11509 whole entry): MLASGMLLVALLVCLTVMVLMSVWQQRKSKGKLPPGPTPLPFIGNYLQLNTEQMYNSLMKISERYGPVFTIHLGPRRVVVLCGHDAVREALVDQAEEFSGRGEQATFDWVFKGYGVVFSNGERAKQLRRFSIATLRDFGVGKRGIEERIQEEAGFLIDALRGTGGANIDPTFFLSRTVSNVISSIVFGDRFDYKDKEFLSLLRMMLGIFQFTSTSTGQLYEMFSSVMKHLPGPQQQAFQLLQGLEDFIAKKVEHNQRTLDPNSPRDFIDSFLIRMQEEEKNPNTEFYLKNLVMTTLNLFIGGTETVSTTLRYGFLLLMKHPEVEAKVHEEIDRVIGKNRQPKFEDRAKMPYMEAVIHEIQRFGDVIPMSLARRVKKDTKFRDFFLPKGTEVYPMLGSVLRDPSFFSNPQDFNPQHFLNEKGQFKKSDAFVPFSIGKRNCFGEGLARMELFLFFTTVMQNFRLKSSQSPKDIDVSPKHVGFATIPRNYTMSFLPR

[25] = AUC (0 to infinity) male Sprague-Dawley rat at 10 mg/kg, po measured up to 24 hrs by LC-MS/MS analysis; type: ADME, organism-based; conditions: in vivo

Chain of CYP3A4 (P08684 whole entry): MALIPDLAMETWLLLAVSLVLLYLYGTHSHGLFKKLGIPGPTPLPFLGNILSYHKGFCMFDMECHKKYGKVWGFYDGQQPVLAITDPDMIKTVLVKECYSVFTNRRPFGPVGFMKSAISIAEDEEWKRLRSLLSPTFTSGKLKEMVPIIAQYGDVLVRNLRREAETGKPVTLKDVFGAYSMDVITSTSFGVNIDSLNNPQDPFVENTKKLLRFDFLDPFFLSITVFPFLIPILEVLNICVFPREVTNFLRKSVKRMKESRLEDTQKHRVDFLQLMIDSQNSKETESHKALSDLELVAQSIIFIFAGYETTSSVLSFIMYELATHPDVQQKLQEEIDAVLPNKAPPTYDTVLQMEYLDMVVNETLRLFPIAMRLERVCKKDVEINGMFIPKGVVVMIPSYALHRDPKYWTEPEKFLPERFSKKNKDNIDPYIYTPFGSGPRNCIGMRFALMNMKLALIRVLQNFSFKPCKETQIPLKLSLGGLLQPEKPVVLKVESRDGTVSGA

In the case of `N#Cc1cccc(Oc2nc(-c3cccc(C#N)c3)ncc2C(=O)O)c1`, the IC50 (Plasma [1]) is reported as 2810 nM, the Activity (Rattus norvegicus [2]) is reported as “Active; Water Content Did Not Return To Blank Level; At 10 Mg/Kg, Compound Showed Comparable Effect To Bptu, Edaravone, Hnw001” and the bioavailability [3] is reported as 4.1%. The AUC [4] was 12.81 µg·h/g, the fraction unbound at 12 h, 10 µM [5] was 0.046 and the inhibition at 2 h, 10 µM (CYP3A4) was 51.7%. The AUC [6] was 18.55 µg·h/g, the Activity (Rattus norvegicus [7]) was “Dose-dependent-effect; Outperformed Edaravone And Hnw001 At 10 Mg/Kg” and the Activity (Rattus norvegicus [8]) was 32%. It also gave an Activity (Rattus norvegicus [9]) of 32%, a Tmax ([10]; po, 10 mg/kg, 24 h) of 6.12 min and an ED50 (Rattus norvegicus [11]) of 4.6 mg/kg. It also gave a half-life [12] of 38.5 min, a Tmax [13] of 4.98 min and a Kp [14] of 2.39. For the same compound, the Activity (Rattus norvegicus [15]) was “Moderate_effect; Moderate Bleeding Loss Was Observed; Potency Was More Than Bptu And Ticagrelor”, the Cmax ([16]; po, 10 mg/kg, 24 h) was 610 ng/mL and the IC50 (Plasma [17]) was 2640 nM. For the same compound, the Activity [18] was 6.15%, the inhibition in vivo at 10 mg/kg (Rattus norvegicus [19]) was 47.6% and the AUC [20] was 5360 ng·h/mL. It also gave an Activity (Rattus norvegicus [21]) of 50.6%, an inhibition (Oryctolagus cuniculus) of 35.9% and a clearance [22] of 7 mL/min/kg. The Activity (Rattus norvegicus [23]) was “Dose-dependent-effect; Outperformed Edaravone And Hnw001 At 10 Mg/Kg”, the fraction unbound at 12 h, 10 µM [24] was 0.046 and the inhibition at 2 h, 10 µM (CYP2A6) was -17.7%. For the same compound, the AUC ([25]; po, 10 mg/kg, 24 h) was 986 ng·h/mL.

In the case of `N#Cc1cccc(-c2nc(C(F)F)c(C(=O)O)n2OCc2csc(N)n2)c1`, the IC50 (Plasma [1]) is reported as 2520 nM, the Activity (Rattus norvegicus [2]) is reported as “Active; Water Content Did Not Return To Blank Level” and the bioavailability [3] is reported as 0.31%. The AUC [4] was 0.7 µg·h/g, the fraction unbound at 12 h, 10 µM [5] was 0.092 and the inhibition at 2 h, 10 µM (CYP3A4) was 55.7%. The AUC [6] was 1.02 µg·h/g, the Activity (Rattus norvegicus [7]) was “Dose-dependent-effect; Outperformed Edaravone And Hnw001 At 10 Mg/Kg” and the Activity (Rattus norvegicus [8]) was 32%. It also gave an Activity (Rattus norvegicus [9]) of 40.6%, a Tmax ([10]; male, Sprague-Dawley, read-out: Tmax) of 10 min and an ED50 (Rattus norvegicus [11]) of 8.39 mg/kg. For the same compound, the half-life [12] was 14.9 min, the Tmax [13] was 4.98 min and the Kp [14] was 1.08. For the same compound, the Activity (Rattus norvegicus [15]) was “Active; No Bleeding Loss Was Observed”, the Cmax ([16]; male, Sprague-Dawley, read-out: Cmax) was 480 ng/mL and the IC50 (Plasma [17]) was 1860 nM. The Activity [18] was 4.29%, the inhibition in vivo at 10 mg/kg (Rattus norvegicus [19]) was 43.2% and the AUC [20] was 650 ng·h/mL. For the same compound, the Activity (Rattus norvegicus [21]) was 45.9%, the inhibition (Oryctolagus cuniculus) was 24.5% and the clearance [22] was 14.6 mL/min/kg. For the same compound, the Activity (Rattus norvegicus [23]) was “Dose-dependent-effect; Outperformed Edaravone And Hnw001 At 10 Mg/Kg”, the fraction unbound at 12 h, 10 µM [24] was 0.074 and the inhibition at 2 h, 10 µM (CYP2A6) was -13.5%. For the same compound, the AUC(0-inf) ([25]; male, Sprague-Dawley) was 36 ng·h/mL.
